We go through four molecules from US20220289794A1, “SYNTHETIC ANTIMICROBIAL PEPTIDES” (priority 2019, published 2022).

Values after ≈ are worked out from the molar mass of the structure shown. Non-standard residues stand in square brackets, D forms with d. Residues, ends and D or L forms follow the SMILES beside them. Dip = N[C@H](C(=O)O)C(c1ccccc1)c1ccccc1; 2Nal = N[C@@H](Cc1ccc2ccccc2c1)C(=O)O; d2Nal = N[C@H](Cc1ccc2ccccc2c1)C(=O)O

For data set [1], the system named is Enterococcus faecium ATCC 27270. The conditions noted are these: E. faecium ATCC 27270.
The test system of data set [2] is S. aureus ATCC 29213. The conditions noted are these: ATCC 29213.
In data set [3] the test system is B. subtilis (ATCC-6633). Description: Broad-spectrum activity against Gram-Positive bacteria (MIC). In kind it is cell-based. Also noted: unit not given here.
Data set [4] relates to B. cereus (ATCC-13061). The data set is described as above. Also noted: unit not given here. In kind it is cell-based.
The test system of data set [5] is human red blood cells. Also noted: unit not given beside the values.
Data set [6] concerns Pseudomonas aeruginosa (ATCC 27883). To be noted: ATCC 27883.
In data set [7] the test system is Klebsiella pneumoniae (ATCC BAA-1705). To be noted: Table 16, Gram-negative panel.
Data set [8] deals with Enterococcus faecalis ATCC 29212. The conditions noted are these: E. faecalis ATCC 29212.
The test system of data set [9] is Escherichia coli (ATCC 25922). To be noted: ATCC 25922.
The test system of data set [10] is Enterococcus faecium ATCC 700221. The conditions noted are these: E. faecium ATCC 700221.
Data set [11] has as its system P. aeruginosa (ATCC 10145). Nature of the data set: Broad-spectrum activity against Gram-Negative bacteria (MIC). It is filed as cell-based. To be noted: Table 16, Gram-negative panel.
Data set [12] relates to Klebsiella pneumoniae ATCC 13883. The conditions noted are these: Table 16, Gram-negative panel.
Data set [13] concerns Methicillin-resistant Staphylococcus aureus MRSA (ATCC BAA-1556). To be noted: ATCC BAA-1556.
Data set [14] has as its system Streptococcus pneumoniae ATCC 51938. To be noted: S. pneumoniae ATCC 51938.
In data set [15] the test system is A. baumannii (ATCC BAA-1605). Nature of the data set: Broad-spectrum activity against Gram-Negative bacteria (MIC). It is filed as cell-based. The conditions noted are these: Table 16, Gram-negative panel.
The subject of data set [16] is P. aeruginosa (ATCC BAA-1744). Described as above. It is filed as cell-based. To be noted: Table 16, Gram-negative panel.
Data set [17] deals with Streptococcus pneumoniae ATCC 49619. To be noted: S. pneumoniae ATCC 49619.
Data set [18] deals with E. coli (ATCC BAA-2452). Nature of the data set: Broad-spectrum activity against Gram-Negative bacteria (MIC). In kind it is cell-based. To be noted: Table 16, Gram-negative panel.
The nature of data set [19]: in vitro. To be noted: human, fresh human red blood cells (washed), pH 7.4.
Method: Hemolytic Assay. We investigated the hemolytic effect (hemolytic assay) of the compounds on fresh human red blood cells to determine the cytotoxicity of the compounds. The hemolytic assay was conducted by serial dilution using 1% Triton X, 0.2% Triton X and PBS buffer pH 7.4 as controls. […] 3 mL of the fresh blood sample was washed severally by adding about 10 mL PBS buffer pH 7.4 and centrifuge at 4000 G until the supernatant was cleared. The washed blood sample was diluted to 20 mL volume to be used in the study. An aliquot of 190 μL blood sample was added to 10 μL compound sample in an Eppendorf tube and incubated for 30 min. After incubation, it was centrifuged at 4000 G for 5 min. 100 μL supernatant aliquot was diluted with 1 mL PBS buffer, and the absorbance was measured at 567 nm for the sample. % hemolysis is calculated as follows:
Where AX is the absorbance at various serial concentrations A0 absorbance of PBS buffer pH 7.4 AX absorbance of 0.2% Triton X control equivalent to 100%

As to `N=C(N)NCCC[C@@H]1NC(=O)[C@H](CCCNC(=N)N)NC(=O)[C@H](C(c2ccccc2)c2ccccc2)NC(=O)[C@H](C(c2ccccc2)c2ccccc2)NC(=O)[C@H](CCCNC(=N)N)NC(=O)[C@H](CCCNC(=N)N)NC(=O)[C@H](C(c2ccccc2)c2ccccc2)NC1=O` [IFX-017, c[Arg-Arg-Dip-Dip-Arg-Arg-Dip]] (cyclo(R[Dip]RR[Dip][Dip]R)), the “Broad-spectrum activity E. faecium (ATCC 27270)” value in data set [1] is 3.1. Further, in data set [2], the “MIC S. aureus ATCC 29213” value was found to be 6.2 µg/mL (≈ 4.79 µM). Besides, the “Broad-spectrum activity B. subtilis (ATCC-6633)” value in data set [3] is reported as 1.5. For the same molecule, the “Broad-spectrum activity B. cereus (ATCC-13061)” value in [4] is 6.2. Further, in [5], the HC50 is reported as 290. The “MIC P. aeruginosa ATCC 27883” value in data set [6] is above 100 µg/mL. Further, the MIC K. pneumonia (ATCC BAA-1705) in data set [7] turned out to be 25 µg/mL (≈ 19.3 µM). In addition, the “Broad-spectrum activity E. faecalis (ATCC 29212)” value in [8] amounted to 12.5. The “MIC E. coli ATCC 25922” value in data set [9] is above 100 µg/mL. Besides, in [10], the “Broad-spectrum activity E. faecium (ATCC 700221)” value was 1.5. In addition, the MIC P. aeruginosa (ATCC 10145) in data set [11] came to 25 µg/mL (≈ 19.3 µM). For the same molecule, the MIC K. pneumonia (ATCC 13883) in data set [12] worked out at 50 µg/mL (≈ 38.6 µM). In [13], the “MIC MRSA ATCC BAA-1556” value stood at 12.5 µg/mL (≈ 9.66 µM). For the same molecule, the “Broad-spectrum activity S. pneumoniae (ATCC 51938)” value in [14] is 12.5. In data set [15], the MIC A. baumannii (ATCC BAA-1605) worked out at 12.5 µg/mL (≈ 9.66 µM). Also, the MIC P. aeruginosa (ATCC BAA-1744) in [16] worked out at 25 µg/mL (≈ 19.3 µM). Moreover, the “Broad-spectrum activity S. pneumoniae (ATCC 49619)” value in [17] stood at 50. Also, the MIC E. coli (ATCC BAA-2452) in data set [18] was determined as 12.5 µg/mL (≈ 9.66 µM).

`NCCCC[C@@H]1NC(=O)[C@H](CCCCN)NC(=O)[C@H](CCCCN)NC(=O)[C@H](Cc2ccc3ccccc3c2)NC(=O)[C@H](Cc2ccc3ccccc3c2)NC(=O)[C@H](Cc2c[nH]c3ccccc23)NC(=O)[C@H](CCCCN)NC(=O)[C@H](CCCCN)NC1=O` [IFX-131, c[Lys-Lys-Lys-Lys-Lys-Trp-NaI-NaI]] (cyclo([2Nal][2Nal]KKKKKW)): the “MIC S. aureus ATCC 29213” value in [2] was found to be 6.2 µg/mL (≈ 5.08 µM). Besides, in [6], the “MIC P. aeruginosa ATCC 27883” value is 64 µg/mL (≈ 52.4 µM). In addition, the “MIC E. coli ATCC 25922” value in [9] turned out to be 128 µg/mL (≈ 105 µM). For the same molecule, the “MIC MRSA ATCC BAA-1556” value in [13] amounted to 12.5 µg/mL (≈ 10.2 µM). Besides, the HC50 at 0.5 h in data set [19] was determined as 690 µg/mL.

Regarding `NCCCC[C@@H]1NC(=O)[C@H](CCCCN)NC(=O)[C@H](CCCCN)NC(=O)[C@@H](Cc2ccc3ccccc3c2)NC(=O)[C@@H](Cc2ccc3ccccc3c2)NC(=O)[C@@H](Cc2c[nH]c3ccccc23)NC(=O)[C@H](CCCCN)NC(=O)[C@H](CCCCN)NC1=O` [IFX-132, c[Lys-Lys-Lys-Lys-Lys-trp-naI-naI]] (cyclo(KKKKK[dW][d2Nal][d2Nal])), the “MIC S. aureus ATCC 29213” value in [2] turned out to be 12.5 µg/mL (≈ 10.2 µM). For the same molecule, the “MIC P. aeruginosa ATCC 27883” value in data set [6] was 128 µg/mL (≈ 105 µM). In addition, the “MIC E. coli ATCC 25922” value in data set [9] was 128 µg/mL (≈ 105 µM). The “MIC MRSA ATCC BAA-1556” value in data set [13] is 12.5 µg/mL (≈ 10.2 µM). This molecule also gave an HC50 at 0.5 h in [19] of 930 µg/mL.

With `NCCCC[C@H]1NC(=O)[C@@H](CCCCN)NC(=O)[C@@H](CCCCN)NC(=O)[C@@H](Cc2ccc3ccccc3c2)NC(=O)[C@@H](Cc2ccc3ccccc3c2)NC(=O)[C@@H](Cc2c[nH]c3ccccc23)NC(=O)[C@@H](CCCCN)NC(=O)[C@@H](CCCCN)NC1=O` [IFX-133, c[lys-lys-lys-lys-lys-trp-naI-naI]] (cyclo([d2Nal][d2Nal][dK][dK][dK][dK][dK][dW])), the “MIC S. aureus ATCC 29213” value in [2] came out at 6.2 µg/mL (≈ 5.08 µM). Besides, in data set [6], the “MIC P. aeruginosa ATCC 27883” value was found to be 128 µg/mL (≈ 105 µM). Also, the “MIC E. coli ATCC 25922” value in data set [9] stood at 128 µg/mL (≈ 105 µM). The “MIC MRSA ATCC BAA-1556” value in data set [13] stood at 6.2 µg/mL (≈ 5.08 µM). The molecule further registered an HC50 at 0.5 h in [19] of 580 µg/mL.
